# In publication PMC2600811 (Neuropharmacology, 2008):
# Key:
# mGluR1a = mGluR1a (Rattus norvegicus, UniProt P23385); experiment: ERK1/2 phosphorylation assay; conditions: for P-ERK1/2 response as % of the response to a maximal concentration of glutamate: 1 µM PAM, no exogenously added agonist
# rat mGluR1a [1] = target: T1, rat mGluR1a (Rattus norvegicus, UniProt P23385); conditions: 500 nM compound, absence of glutamate
# rat mGluR1a [2] = target: T1, rat mGluR1a; experiment: Calcium mobilization; type: cell-based; conditions: fixed 1 µM compound, 10 min pre-incubation
# rat mGlu1a receptor [3] = target: T2, rat mGlu1a receptor (Rattus norvegicus, UniProt P23385); conditions: saturation binding, BHK-mGluR1a membranes
# T2 sequence (P23385 19-1199): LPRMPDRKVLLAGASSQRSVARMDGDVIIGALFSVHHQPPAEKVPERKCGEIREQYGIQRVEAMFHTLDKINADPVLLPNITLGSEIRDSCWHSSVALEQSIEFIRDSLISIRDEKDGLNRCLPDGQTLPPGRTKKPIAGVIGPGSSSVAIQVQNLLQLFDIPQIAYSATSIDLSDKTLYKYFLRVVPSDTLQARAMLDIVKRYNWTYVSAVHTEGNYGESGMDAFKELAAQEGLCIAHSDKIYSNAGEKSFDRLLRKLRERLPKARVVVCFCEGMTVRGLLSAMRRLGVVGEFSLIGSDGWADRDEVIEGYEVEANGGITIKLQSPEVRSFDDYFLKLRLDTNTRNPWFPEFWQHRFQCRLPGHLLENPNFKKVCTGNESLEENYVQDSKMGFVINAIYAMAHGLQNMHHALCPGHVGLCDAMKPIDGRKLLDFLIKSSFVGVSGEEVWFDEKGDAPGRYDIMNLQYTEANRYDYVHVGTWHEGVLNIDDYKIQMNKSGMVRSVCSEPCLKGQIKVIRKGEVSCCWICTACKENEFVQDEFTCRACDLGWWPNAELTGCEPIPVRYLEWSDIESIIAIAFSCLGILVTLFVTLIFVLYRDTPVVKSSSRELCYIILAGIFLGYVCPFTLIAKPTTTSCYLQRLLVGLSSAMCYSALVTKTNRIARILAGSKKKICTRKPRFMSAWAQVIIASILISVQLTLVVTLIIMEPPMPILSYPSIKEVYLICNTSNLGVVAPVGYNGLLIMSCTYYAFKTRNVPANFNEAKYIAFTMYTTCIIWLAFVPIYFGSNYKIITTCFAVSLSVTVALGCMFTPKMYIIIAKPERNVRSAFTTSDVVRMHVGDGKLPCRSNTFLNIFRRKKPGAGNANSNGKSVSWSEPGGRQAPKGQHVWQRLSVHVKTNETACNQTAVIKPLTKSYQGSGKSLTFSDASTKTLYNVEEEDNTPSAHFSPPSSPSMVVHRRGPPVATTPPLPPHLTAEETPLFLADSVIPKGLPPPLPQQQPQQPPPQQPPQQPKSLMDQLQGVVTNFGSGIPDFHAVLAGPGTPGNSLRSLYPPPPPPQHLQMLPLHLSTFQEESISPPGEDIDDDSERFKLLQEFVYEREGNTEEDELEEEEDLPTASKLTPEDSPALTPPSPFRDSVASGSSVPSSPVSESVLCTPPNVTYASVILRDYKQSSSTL
# rat mGlu1a receptor [4] = target: T2, rat mGlu1a receptor; experiment: biochemical
# Chain of mGluR1a (P23385 19-1199): as above
# T1 sequence (P23385 19-1199): as above
Compound,EC50 (mGluR1a) [nM],P-ERK1/2 response as % of the response to a maximal concentration of glutamate (mGluR1a) [%],increase of basal cAMP accumulation (rat mGluR1a [1]),leftward shift of the glutamate concentration-response curve (calcium) (rat mGluR1a [2]),Bmax (rat mGlu1a receptor [3]),Kd (rat mGlu1a receptor [4]) [nM],effect on basal ERK1/2 phosphorylation (mGluR1a; antagonist alone (100 nM R214127 or 10 µM LY341495))
"Cc1ccc(S(=O)(=O)N2CCC[C@H]2c2ccc(F)cc2)cc1 (racemic) [Ro 67-7476, (S)-2-(4-fluorophenyl)-1-(toluene-4-sulfonyl)pyrrolidine]",163 ± 44.8,120.4 ± 1.9,8%,~4.5 fold,,,
"O=C(Cc1ccccc1)c1ccc2nc3c(cc2c1)CCCO3 [R214127, 1-(3,4-dihydro-2H-pyrano[2,3-b]quinolin-7-yl)-2-phenyl-1-ethanone]",,,,,3817 ± 226 fmol/mg of protein,2.8 ± 0.3,does not effect basal ERK1/2 phosphorylation
"CCOC(=O)NC(=O)C(c1ccccc1)c1ccccc1 [Ro 01-6128, ethyl diphenylacetylcarbamate]",,119.5 ± 17.3,approximately 7%,approximately 2 fold,,,
"CCCCOC(=O)NC(=O)C1c2ccccc2Oc2ccccc21 [Ro 67-4853, butyl (9H-xanthene-9-carbonyl)carbamate]",9.2 ± 6.2,114.4 ± 29.0,30%,~15 fold,,,
